Reference: US20240383853A1, “OXIMES AND THEIR USE IN TREATMENT OF GBA-RELATED DISEASES” (ZEVRA DENMARK A/S, priority 2021, published 2024)
Counter-ions that a name gives are not always drawn. Marks after values point to notes of the source that are not given here.

Target: T1, glucosylceramidase (GCase, GBA) in human fibroblast cell line GM10915 harboring the L444P GBA mutation (Homo sapiens, UniProt P04062, L483P)
T1 construct: Human fibroblast cell line GM10915 harboring the L444P GBA mutation; host or cells: GM10915 human fibroblasts
T1 sequence (P04062 40-536 L483P): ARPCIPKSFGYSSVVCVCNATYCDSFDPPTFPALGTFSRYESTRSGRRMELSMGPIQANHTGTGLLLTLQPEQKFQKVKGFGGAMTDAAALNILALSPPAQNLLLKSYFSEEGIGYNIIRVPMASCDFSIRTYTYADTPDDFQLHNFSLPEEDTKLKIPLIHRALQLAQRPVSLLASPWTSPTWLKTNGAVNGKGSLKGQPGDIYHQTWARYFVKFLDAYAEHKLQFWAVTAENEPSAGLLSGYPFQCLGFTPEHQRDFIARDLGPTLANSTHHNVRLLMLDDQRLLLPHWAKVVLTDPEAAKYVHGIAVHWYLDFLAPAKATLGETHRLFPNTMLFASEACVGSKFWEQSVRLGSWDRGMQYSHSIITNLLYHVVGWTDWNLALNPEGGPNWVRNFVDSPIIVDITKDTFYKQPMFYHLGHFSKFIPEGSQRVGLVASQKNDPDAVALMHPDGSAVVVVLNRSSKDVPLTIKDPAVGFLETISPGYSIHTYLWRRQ
Assay: GCase activity assay (4-MUG substrate, normalised to crystal violet staining) in GM10915 fibroblasts
Assay type: cell-based
Details: five days exposure; for GBA EC1.5: concentration where Percent GCase activity = 150% (1.5-fold induction), 8-point dose range; for Emax / GBA Emax: maximum Percent GCase activity relative to untreated cells in the dose range tested
Procedure: Human fibroblast cell line GM10915 harboring the L444P GBA mutation was obtained from Coriell Biorepositories. All chemicals (Glacial acetic acid, Glycine, 4-Methylumbelliferyl b-D-glucopyranoside (4-MUG), Sodium acetate trihydrate, Sodium hydroxide, Crystal violet, SDS, Ammonium hydroxide) were obtained from Sigma-Aldrich (Denmark). Compounds tested for GCase activity were dissolved in H2O or DMSO.
The GM10915 cell line was cultured under standard cell culture conditions (37° C. and 5% CO2) in complete DMEM medium supplemented with nonessential amino acids (NEAA), 1% Pen-Strep and 12% FCS. Cells were seeded at a density of 10^4 cells/well in 100 μL complete medium in one black 96-well plate for glucosylceramidase (GCase) activity measurement and in one clear 96-well plate for crystal violet staining to correct for cell density. Crystal violet staining is performed to obtain quantitative information about the relative density of cells adhering to multi-wells plates.
The assay was adapted from Sawkar et al (2002) and briefly described in the following. The day after seeding of cells, the medium was replaced with fresh medium containing the compounds to be tested. Compounds were tested in duplicate and in an 8-point diluted dose range to obtain a dose response. Cells were exposed with compounds for five days. Fresh compound was added every 2-3 days. PBS was included to define the basal level of GCase activity.
Cells were washed three times with 200 μL PBS per well and 50 μL of 2.5 mM 4-MUG buffer (4-MUG dissolved in 0.2 M acetate buffer pH 4.0) was added and the cells were incubated at 37° C., 5% CO2 for 23 hours. The reaction was stopped by adding 150 μL 0.2 M glycine buffer (pH 10.8). Fluorescence was measured with a Varioskan® Flash reader (Thermo Scientific) at an excitation/emission setting of 365/445 nm.
Cells were treated with compounds in a parallel setup identical to the setup to test for GCase activity. At the end of compound treatment, cells were washed once with 200 μL PBS per well and 50 μL 0.1% w/v crystal violet (in H2O) was added. Following 10 min. of incubation, the crystal violet solution was removed, and the cells were washed three times with 200 μL PBS and 100 μL 1% SDS was added to solubilize the stain. The plate was agitated on an orbital shaker for 10-30 min. Absorbance (A) is measured at […] using a Varioskan® Flash reader (Thermo Scientific).
The fluorescence signal (F) derived from the GCase measurement is normalized to the absorbance signal (A) derived from the crystal violet staining. The percent GCase activity resulting from compound treatment is calculated relative to the basal activity obtained from untreated cells.
Maximal effect of compounds (Emax) is determined from the dose response effects as the maximum “Percent GCase activity” achieved in the dose range tested.

| Compound | GBA EC1.5 | Emax | other results |
| --- | --- | --- | --- |
| CC1(C(Cl)=NOC[C@@H](O)CN2CCCCC2)CCNCC1 (single isomer, unassigned) [ID 384] | 32 µM | 352% | – |
| CN(C)CCC(Br)=NOCC(O)CN1CCCCC1 (single isomer, unassigned) [ID 532, 3-(dimethylamino)-N-(2-hydroxy-3-(piperidin-1-yl)propoxy)propanimidoyl bromide] | 30 µM | 239% | – |
| Cc1cc(C(Cl)=NOCC(O)CN2CCCCC2)on1 (stereo not shown) [ID 475, N-(2-hydroxy-3-(piperidin-1-yl)propoxy)-3-methylisoxazole-5-carbimidoyl chloride] | 24 µM | 354% | – |
| N-(2-hydroxy-3-(piperidin-1-yl)propoxy)-4-((6-methoxy-2-methylpyridin-3-yl)methyl)piperidine-4-carbimidoyl chloride tri-2,2,2-trifluoroacetate [ID 524] | 1 µM | – | GBA Emax: 149% |
| OC(CO/N=C(\Cl)C1(c2ccccn2)CCNCC1)CN1CCCCC1 (stereo not shown) [ID 415, N-(2-hydroxy-3-(piperidin-1-yl)propoxy)-4-(pyridin-2-yl)piperidine-4-carbimidoyl chloride tri-2,2,2-trifluoroacetate] | 23 µM | 235% | – |
| OC(CON=C(Cl)C1(c2ccccn2)CCNCC1)CN1CCCCC1 (stereo not shown) [ID 534, N-(2-hydroxy-3-(piperidin-1-yl)propoxy)-4-(pyridin-2-yl)piperidine-4-carbimidoyl chloride tri-2,2,2-trifluoroacetate] | 19 µM | 226% | – |
| COC(CO/N=C(\Cl)c1ccc(Cl)nc1)CN1CCCCC1 (stereo not shown) [ID 503] | 50 µM | 142% | – |
| OC(CON=C(Cl)CCN1CCCCC1)CN1CCCCC1 (stereo not shown) [ID 563, N-(2-hydroxy-3-(piperidin-1-yl)propoxy)-3-(piperidin-1-yl)propanimidoyl chloride] | 3 µM | 211% | – |
| OC(CO/N=C(\Cl)CCN1CCNCC1)CN1CCCCC1 (stereo not shown) [ID 593] | 50 µM | 136% | – |
| CN(CC/C(Cl)=N\OCC(O)CN1CCCCC1)C(=O)OC(C)(C)C (stereo not shown) [ID 599, tert-butyl (3-chloro-3-((2-hydroxy-3-(piperidin-1-yl)propoxy)imino)propyl)(methyl)carbamate] | 48 µM | 136% | – |
| Nc1c(Br)cc(Br)cc1CN[C@H]1CC[C@H](O)CC1 [Ambroxol, reference compound] | >20* *The 1.5-fold induction criteria was not reached within the tested concentration range μM | 127% | – |
| OC(CO/N=C(\Cl)C1(Cc2cccnc2)CCNCC1)CN1CCCCC1 (stereo not shown) [ID 550] | – | – | GBA EC1.5 (listed as 550): 27 µM; GBA Emax (listed as 550): 159% |
| CC1(C(Cl)=NOCC(O)CN2CC3CCC2C3)CCNCC1 (single isomer, unassigned) [ID 410, N-(3-(2-azabicyclo[2.2.1]heptan-2-yl)-2-hydroxypropoxy)-4-methylpiperidine-4-carbimidoyl chloride di-2,2,2-trifluoroacetate] | 43 µM | 344% | – |
| CC1(/C(Cl)=N/OCC(O)CN2CCC(F)CC2)CCNCC1 (stereo not shown) [ID 399, N-(3-(4-fluoropiperidin-1-yl)-2-hydroxypropoxy)-4-methylpiperidine-4-carbimidoyl chloride di-2,2,2-trifluoroacetate] | 34 µM | 314% | – |
| CCCCCO[C@H]1CC[C@H](NC(=O)c2cnn3c(C)cc(C)nc23)CC1 [LTI-291, reference compound] | 112 µM | 232% | – |
| CN(C)CC/C(Cl)=N\OCC(O)CN1CCCCC1 (stereo not shown) [ID 446, 3-(dimethylamino)-N-(2-hydroxy-3-(piperidin-1-yl)propoxy)propanimidoyl chloride] | 6 µM | 176% | – |
| CC1(/C(Cl)=N/OCC(O)CN2CCCCC2)CCNCC1 (stereo not shown) [ID 336, N-(2-hydroxy-3-(piperidin-1-yl)propoxy)-4-methylpiperidine-4-carbimidoyl chloride dihydrochloride] | 37 µM | 320% | – |
| OC(CO/N=C(\Cl)C1(Cc2cccnc2)CCNCC1)CN1CCCCC1 (stereo not shown) [ID 419, N-(2-hydroxy-3-(piperidin-1-yl)propoxy)-4-(pyridin-3-ylmethyl)piperidine-4-carbimidoyl chloride tri-2,2,2-trifluoroacetate] | – | – | GBA EC1.5 (listed as 419): 12 µM; GBA Emax (listed as 419): 387% |
| Cc1cc(Cl)ncc1C(Cl)=NOCC(O)CN1CCCCC1 (stereo not shown) [ID 501, 6-chloro-N-(2-hydroxy-3-(piperidin-1-yl)propoxy)-4-methylnicotinimidoyl chloride] | 19 µM | 128% | – |
| [O-][n+]1ccc(/C(Br)=N/OCC(O)CN2CCCCC2)cc1 (stereo not shown) [ID 352] | 45 µM | 474% | – |
| OC(CON=C(Br)c1ccc(Cl)nc1)CN1CCCCC1 (stereo not shown) [ID 504, 6-chloro-N-(2-hydroxy-3-(piperidin-1-yl)propoxy)nicotinimidoyl bromide] | 20 µM | 310% | – |
| CC1(/C(Cl)=N/OC[C@H](O)CN2CCCCC2)CCNCC1 (stereo in doubt) [ID 387, (R)—N-(2-hydroxy-3-(piperidin-1-yl)propoxy)-4-methylpiperidine-4-carbimidoyl chloride di-2,2,2-trifluoroacetate] | 35 µM | 379% | – |
| 4-(3-chloropyridin-4-yl)-N-(2-hydroxy-3-(piperidin-1-yl)propoxy)piperidine-4-carbimidoyl chloride tri-2,2,2-trifluoroacetate [ID 535] | 36 µM | – | GBA Emax: 186% |
| N-(2-hydroxy-3-(piperidin-1-yl)propoxy)-4-((6-methylpyridin-3-yl)methyl)piperidine-4-carbimidoyl chloride tri-2,2,2-trifluoroacetate [ID 493] | 18 µM | – | GBA Emax: 279% |
| Cc1ncc(C(Cl)=NOCC(O)CN2CCCCC2)s1 (stereo not shown) [ID 453, N-(2-hydroxy-3-(piperidin-1-yl)propoxy)-2-methylthiazole-5-carbimidoyl chloride] | 39 µM | 202% | – |
| COCCC1(/C(Cl)=N/OCC(O)CN2CCCCC2)CCNCC1 (stereo not shown) [ID 448, N-(2-hydroxy-3-(piperidin-1-yl)propoxy)-4-(2-methoxyethyl)piperidine-4-carbimidoyl chloride di-2,2,2-trifluoroacetate] | 34 µM | 468% | – |
| CN1CCN(CC(O)CON=C(Cl)C2(Cc3cccnc3)CCNCC2)CC1 (single isomer, unassigned) [ID 513, N-(2-hydroxy-3-(4-methylpiperazin-1-yl)propoxy)-4-(pyridin-3-ylmethyl)piperidine-4-carbimidoyl chloride tetra-2,2,2-trifluoroacetate] | 35 µM | 174% | – |
| OC(CO/N=C(\Cl)C1(c2cnccn2)CCNCC1)CN1CCCCC1 (stereo not shown) [ID 512] | 50 µM | 147% | – |
| [O-][n+]1cccc(/C(Br)=N/OCC(O)CN2CCCCC2)c1 (stereo not shown) [ID 257] | 35 µM | 307% | – |
